Measurements reported in US11779586B2, “Compounds comprising tricyclic heterocyclic compounds” (Convalife (Shanghai) Co. Limited, priority 2015, dated 2023).
Read-outs that look alike come from different tables or passages of the source.

Key:
p110β/p110γ = experiment: HTRF biochemical assay, class I PI3K isoforms (Reaction Biology Corp.): fold selectivity p110β/p110γ; conditions: fold form selectivity
Description: (§1) Fold form selectivity inhibition data against class I PI3K isoforms, as determined using a HTRF biochemical assay conducted at Reaction Biology Corp., is listed below.

p110β/p110α = experiment: HTRF biochemical assay, class I PI3K isoforms (Reaction Biology Corp.): fold selectivity p110β/p110α; conditions: fold form selectivity
Description: as §1

p110δ/p110γ = experiment: HTRF biochemical assay, class I PI3K isoforms (Reaction Biology Corp.): fold selectivity p110δ/p110γ; conditions: fold form selectivity
p110δ/p110α = experiment: HTRF biochemical assay, class I PI3K isoforms (Reaction Biology Corp.): fold selectivity p110δ/p110α; conditions: fold form selectivity
[1] = Rodent pharmacokinetics: oral bioavailability and clearance, plasma PK; assay type: in vivo, mouse
Description: Formulation: 10% DMSO, 90% Saline Dosing: 10 mg/kg P.O. and 5 mg/kg I.V.
• Species=male mouse; • Strain=Balb/c; • 18 male mice were divided into two groups Group 1 (3 mg/kg; I.V.), Group 2 (10 mg/kg; P.O.) with each group comprising nine mice; • Blood samples (approximately 60 μL) were collected from retro orbital plexus under light isoflurane anesthesia such that the samples were obtained at pre-dose, 0.08, 0.25, 0.5, 1, 2, 4, 8 and 24 hr (I.V.) and pre-dose, 0.25, 0.5, 1, 2, 4, 6, 8 and 24 hr (P.O.); • The blood samples were collected from a set of three mice at each time point in labeled micro centrifuge tube containing K2EDTA as anticoagulant; • Plasma samples were separated by centrifugation of whole blood and stored below −70° C. until bioanalysis; • All samples were processed for analysis by protein precipitation using acetonitrile (ACN) and analyzed with fit for purpose LC/MS/MS method (LLOQ: 2.02 ng/mL); • Pharmacokinetic parameters were calculated using the non-compartmental analysis tool of Phoenix WinNonlin (Version 6.3). Formulation: Animals in Group 1 were administered intravenously with Example B solution formulation in 20% propylene glycol, 50% of PEG 400 and 30% of 20% βCD in water via tail vein at a dose of 3 mg/kg. Animals in Group 2 were administered with oral solution formulation of Example B in 20% propylene glycol, 50% of PEG 400 and 30% of 20% HPβCD in water at a dose of 10 mg/kg; Dosing: 10 mg/kg P.O. and 3 mg/kg I.V.
• Species=male mouse; • Strain=Balb/c; • 18 male mice were divided into two groups Group 1 (3 mg/kg; I.V.), Group 2 (10 mg/kg; P.O.) with each group comprising nine mice; • Blood samples (approximately 60 μL) were collected from retro orbital plexus under light isoflurane anesthesia such that the samples were obtained at pre-dose, 0.08, 0.25, 0.5, 1, 2, 4, 8 and 24 hr (I.V.) and pre-dose, 0.25, 0.5, 1, 2, 4, 6, 8 and 24 hr (P.O.); • The blood samples were collected from a set of three mice at each time point in labeled micro centrifuge tube containing K2EDTA as anticoagulant; • Plasma samples were separated by centrifugation of whole blood and stored below −70° C. until bioanalysis; • All samples were processed for analysis by protein precipitation using acetonitrile (ACN) and analyzed with fit for purpose LC/MS/MS method (LLOQ: 2.47 ng/mL); • Pharmacokinetic parameters were calculated using the non-compartmental analysis tool of Phoenix WinNonlin (Version 6.3). Formulation: Animals in Group 1 were administered intravenously with Example G solution formulation in 5% NMP, 5% solutol HS-15 in 90% HPβCD solution (20% HPβCD in RO water) at 3 mg/kg dose. Animals in Group 2 were administered orally with 10 mg/kg solution formulation of Example G in 5% NMP, 5% solutol HS-15 in 90% HPβCD solution (20% HPβCD in RO water) Dosing: 10 mg/kg P.O. and 3 mg/kg I.V.
• Species=male mouse; • Strain=CD1; • n=3 male mice per time point per route; • Terminal blood sampling at 8 time points (5 min, 10 min, 0.5 hr, 1 hr, 3 hr, 6 hr, 8 hr and, 24 hr); • Collection of plasma, bio-analysis and report of pharmacokinetic parameters. Formulation: 10% DMSO, 90% Saline Dosing: 10 mg/kg P.O. and 5 mg/kg I.V.

[2] = in vivo, iv, male mouse, I.V. (5 mg/kg CD1: Example A, comparative; 3 mg/kg Balb/c: Examples B, G), mesylate salt, read-out: Clearance

| SMILES | Fold IC50 p110β/p110γ (p110β/p110γ) | Fold IC50 p110β/p110α (p110β/p110α) | Fold IC50 p110δ/p110γ (p110δ/p110γ) | Fold IC50 p110δ/p110α (p110δ/p110α) | F ([1]; male, CD1, mouse, in vivo) [%] | clearance ([1]; male, mouse, in vivo, iv) [mL/min/kg] | clearance [1, 2] [mL/min/kg] | F ([1]; male Balb/c mouse, PO 10 mg/kg vs IV 3 mg/kg, 20% propylene glycol, 50% PEG 400, 30% of 20% HPβCD in water, mesylate salt) [%] | clearance ([1]; male, mouse, in vivo, summary table, mice, mesylate salts, read-out: Clearance) [mL/min/kg] | F ([1]; male Balb/c mouse, PO 10 mg/kg vs IV 3 mg/kg, 5% NMP, 5% solutol HS-15 in 90% HPβCD solution, mesylate salt) [%] |
| --- | --- | --- | --- | --- | --- | --- | --- | --- | --- | --- |
| CN1CCC2(CCN(Cc3cnc4oc5c(N6CCOCC6)nc(-c6cccc7[nH]ccc67)nc5c4c3)C2)C1 (stereo not drawn) [Example E, 4-(1H-Indol-4-yl)-12-({7-methyl-2,7-diazaspiro[4.4]nonan-2-yl}methyl)-6-(morpholin-4-yl)-8-oxa-3,5,10-triazatricyclo[7.4.0.0^2,7]trideca-1(13),2(7),3,5,9,11-hexaene] | ** (** = >50×) | ** (** = >50×) | ** (** = >50×) | ** (** = >50×) | – | – | – | – | – | – |
| c1cc(-c2nc(N3CCOCC3)c3oc4ncc(CN5C[C@@H]6C[C@H]5CO6)cc4c3n2)c2cc[nH]c2c1 [Example A, 4-(1H-Indol-4-yl)-6-(morpholin-4-yl)-12-[(1S,4S)-2-oxa-5-azabicyclo[2.2.1]heptan-5-ylmethyl]-8-oxa-3,5,10-triazatricyclo[7.4.0.0^2,7]trideca-1(13),2(7),3,5,9,11-hexaene] | – | – | – | – | 73.77 | 21 | – | – | – | – |
| c1cc(-c2nc(N3CCOCC3)c3oc4ncc(CN5CCC6(CC5)COC6)cc4c3n2)c2cc[nH]c2c1 [Example B, 4-(1H-Indol-4-yl)-6-(morpholin-4-yl)-12-{2-oxa-7-azaspiro[3.5]nonan-7-ylmethyl}-8-oxa-3,5,10-triazatricyclo[7.4.0.0^2,7]trideca-1(13),2(7),3,5,9,11-hexaene] | ** (** = >50×) | ** (** = >50×) | ** (** = >50×) | ** (** = >50×) | – | – | 33 | 74 | 33 | – |
| c1cc(-c2nc(N3CCOCC3)c3oc4ncc(CN5CCC56COC6)cc4c3n2)c2cc[nH]c2c1 [Example G, 4-(1H-indol-4-yl)-6-(morpholin-4-yl)-12-{6-oxa-1-azaspiro[3.3]heptan-1-ylmethyl}-8-oxa-3,5,10-triazatricyclo[7.4.0.0^2,7]trideca-1(13),2(7),3,5,9,11-hexaene] | ** (** = >50×) | * (* = ≥10× ≥ 50×) | ** (** = >50×) | ** (** = >50×) | – | – | 26 | – | – | 30 |
| CN1CCC2(CCN(Cc3cnc4oc5c(N6CCOCC6)nc(-c6cccc7[nH]ccc67)nc5c4c3)CC2)C1 [Example D, 4-(1H-Indol-4-yl)-12-({2-methyl-2,8-diazaspiro[4.5]decan-8-yl}methyl)-6-(morpholin-4-yl)-8-oxa-3,5,10-triazatricyclo[7.4.0.0^2,7]trideca-1(13),2(7),3,5,9,11-hexaene] | ** (** = >50×) | ** (** = >50×) | ** (** = >50×) | ** (** = >50×) | – | – | – | – | – | – |
| c1cc(-c2nc(N3CCOCC3)c3oc4ncc(CN5CC6CC[C@H](C5)O6)cc4c3n2)c2cc[nH]c2c1 (stereo in doubt) [Example C, 4-(1H-Indol-4-yl)-6-(morpholin-4-yl)-12-{8-oxa-3-azabicyclo[3.2.1]octan-3-ylmethyl}-8-oxa-3,5,10-triazatricyclo[7.4.0.0^2,7]trideca-1(13),2(7),3,5,9,11-hexaene] | ** (** = >50×) | * (* = ≥10× ≥ 50×) | ** (** = >50×) | ** (** = >50×) | – | – | – | – | – | – |
